Data published in ChEMBL document CHEMBL1201862, “PubChem BioAssay data set” (2004).
Calls of active or inactive are those of the source. For most assays here, no stated cut-off is given here; in the data, actives have a measured EC50 and inactives only a lower limit.

Tests used:
[1] = NIH3T3 cell viability loss – ATP luminescence, mouse fibroblasts, counter-screen, dose response (AID 2010); assay type: functional, cell-based;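 further: cells exposed to compound for about 90 hours before reading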
[2] = Trypanosoma cruzi growth suppression in host cells – NIH3T3 host cells, beta-gal luminescence, confirmation (AID 2044); assay type: functional, cell-based;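 further: intracellular parasites grown in NIH/3T3 mouse fibroblasts as host cells; luminescent beta-galactosidase reporter signal from transgenic T. cruzi replicating inside host cells; inhibitors lower the luminescence signal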
[3] = viability of uninfected HEp-2 cells – cell-based, HTS, cytotoxicity control for RSV inhibitor project, dose response (AID 2410); assay type: functional; settings: human respiratory syncytial virus

## Cc1ccc(-c2nnc(N3CCCCCC3)c3ccccc23)cc1
[1]
  EC50: > 60 µM (not active)
[2]
  EC50: 1.19 µM (active)

## Cc1ccc(N2CCN(C(=O)c3nn(C)c4c3CS(=O)(=O)c3ccccc3-4)CC2)c(C)c1
[3]
  CC50: 10.3 µM (active)

## CCC(C)c1ccc(-c2cc(C(=O)OCC(=O)Nc3cc(C)on3)c3ccccc3n2)cc1 (stereo not drawn)
[3]
  CC50: 43.8 µM (active)

## Cc1nc2ccccc2c(=O)n1-c1cc([N+](=O)[O-])cc([N+](=O)[O-])c1
[1]
  EC50: > 60 µM (not active)
[2]
  EC50: 1.98 µM (active)

## CN(C)CCN(C(=O)c1ccc(S(=O)(=O)N(C)c2ccccc2)cc1)c1nc2ccc(Cl)cc2s1
[1]
  EC50: > 15 µM (not active)
[2]
  EC50: 0.117 µM (active)

## Cc1ccccc1C(=O)NC(=S)Nc1sc2c(c1C#N)CCCC2
[3]
  CC50: 25.9 µM (active)

## O=C(/C=C/c1ccccc1)NC(NC(=S)Nc1ccc(Cl)cc1Cl)C(Cl)(Cl)Cl (stereo not drawn)
[1]
  EC50: > 60 µM (not active)
[2]
  EC50: 2.02 µM (active)

## CSCc1cc(N2CCOCC2)nc(SCc2ccc(Cl)c(Cl)c2)n1
[3]
  CC50: 26.1 µM (active)

## COc1ccc(-c2cc(C(F)F)n3ncc(C(=O)N4CCCCC4)c3n2)cc1
[1]
  EC50: > 60 µM (not active)
[3]
  CC50: > 50 µM (active)
[2]
  EC50: 1.25 µM (active)

## CCOC(=O)C1(CCOc2ccccc2)CCN(Cc2ccc3nonc3c2)CC1
[1]
  EC50: > 60 µM (not active)
[2]
  EC50: 2.61 µM (active)

## CCC(C)Sc1nc2c(c(=O)[nH]c(=O)n2C)n1C (stereo not drawn)
[3]
  CC50: 20.8 µM (active)

## Cc1ccc(Cn2nnc3c(O)nc(C4CCN(S(=O)(=O)Cc5ccccc5)CC4)nc32)cc1
[3]
  CC50: 26.8 µM (active)

## CN1C/C(=C/c2ccsc2)C(=O)/C(=C/c2ccsc2)C1
[1]
  EC50: > 30 µM (not active)
[2]
  EC50: 0.156 µM (active)

## COc1ccc(-c2csc3ncnc(N4CCN(S(=O)(=O)c5ccc(C)c(C)c5)CC4)c23)cc1
[1]
  EC50: 24.1 µM (active)
[2]
  EC50: 2.05 µM (active)

## Cc1cc(Cl)ccc1OCCCC(=O)NC1CCN(C)CC1
[1]
  EC50: > 60 µM (not active)
[2]
  EC50: 0.164 µM (active)

## Nc1ccccc1C(=O)Nc1ccc(Cl)cc1Cl
[3]
  CC50: 35.7 µM (active)

## CCCOc1ccc([N+](=O)[O-])cc1C1NC(S)=NC(c2ccccc2)=C1C(=O)OCC (stereo not drawn)
[3]
  CC50: 40.5 µM (active)

## COc1ccccc1NS(=O)(=O)c1cccc(NC(=O)c2sc3ccccc3c2Cl)c1
[1]
  EC50: > 60 µM (not active)
[2]
  EC50: 1.19 µM (active)

## Cc1ccn2cc(-c3cccc(S(=O)(=O)N4CC(C)OC(C)C4)c3)nc2c1 (stereo not drawn)
[3]
  CC50: > 50 µM (active)

## CCOC(=O)c1cccc(-c2c(-c3ccccc3)ncc3cc(OC)c(OC)cc23)c1
[3]
  CC50: 20.4 µM (active)

## O=C(NCc1ccccc1)c1ccc(C(=O)N(C2CCCCC2)C2CCCCC2)cc1
[1]
  EC50: > 60 µM (inconclusive)
[2]
  EC50: 2.27 µM (active)

## CC(C)(C)c1ccc(C(=O)Nc2ccc(S(=O)(=O)Nc3cnc4ccccc4n3)cc2)cc1
[3]
  CC50: 8.3 µM (active)

## Cc1ccc(-c2cc(C(F)F)n3ncc(C(=O)N4CCc5ccccc5C4)c3n2)cc1
[1]
  EC50: > 60 µM (not active)
[2]
  EC50: 1.72 µM (active)

## CCOc1cc(/C=C(\C#N)C(=O)Nc2cccc(C(=O)O)c2)ccc1OCc1ccccc1Cl
[3]
  CC50: 29.9 µM (active)

## COc1ccccc1N1CCN(C(CNC(=O)Oc2ccccc2)c2cccnc2)CC1 (stereo not drawn)
[1]
  EC50: > 60 µM (not active)
[2]
  EC50: 5.42 µM (active)

## Cc1ccc(Nc2nnc(-c3ccc(N4CCOCC4)c([N+](=O)[O-])c3)c3ccccc23)cc1
[3]
  CC50: 10.8 µM (active)

## CCOc1ccccc1Nc1cc(C)nc2ccc(C)cc12
[3]
  CC50: 26.1 µM (active)

## COc1ccc(CN2CCN(Cc3cc4ccccc4o3)CC2CCO)cc1C (stereo not drawn)
[1]
  EC50: > 60 µM (not active)
[2]
  EC50: 0.306 µM (active)
